In experiment [1] the target is T1, furin (endogenous protease) in U20S cells (Homo sapiens, UniProt P09958).
T1 construct: the endogenous protease cleaves GFP; endogenous in cells; host or cells: U2OS cells transduced with a BacMam reporter
The experiment is described as follows: Furin cell-based assay (image-based, Golgi-targeted GFP with BMP10 furin/PCSK cleavage site).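 Further: Read-out is mean GFP fluorescence of Golgi puncta per cell by high-content imaging, retained when furin inhibited, over an eleven-point 0.00017–10 µM series, four-parameter fit.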 To be noted: 24-hour incubation, read-out: furin golgi cell pXC50 (converted).

Experiment [2] addresses T2, Furin (108-574-Tev-Flag-His) enzyme (Homo sapiens, UniProt P09958).
T2 construct: Furin (108-574-Tev-Flag-His) enzyme was expressed and purified from CHO cells; TEV cleavage site (C); FLAG (C); His (C); made in house; host or cells: CHO cells
The experiment is described as follows: Furin enzyme assay. It is filed as biochemical. The method in brief:
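CHO-expressed, purified furin construct at 40 pM in 100 mM HEPES pH7.5, 1 mM CaCl2, 0.005% Triton X-100. Eleven-point 1:3 series, 0.00017–10 μM final, incubated 2 h at room temperature and read on Envision. pXC50 from four-parameter fit.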

SMILES strings stand for the structures.

T1 sequence (P09958 108-794): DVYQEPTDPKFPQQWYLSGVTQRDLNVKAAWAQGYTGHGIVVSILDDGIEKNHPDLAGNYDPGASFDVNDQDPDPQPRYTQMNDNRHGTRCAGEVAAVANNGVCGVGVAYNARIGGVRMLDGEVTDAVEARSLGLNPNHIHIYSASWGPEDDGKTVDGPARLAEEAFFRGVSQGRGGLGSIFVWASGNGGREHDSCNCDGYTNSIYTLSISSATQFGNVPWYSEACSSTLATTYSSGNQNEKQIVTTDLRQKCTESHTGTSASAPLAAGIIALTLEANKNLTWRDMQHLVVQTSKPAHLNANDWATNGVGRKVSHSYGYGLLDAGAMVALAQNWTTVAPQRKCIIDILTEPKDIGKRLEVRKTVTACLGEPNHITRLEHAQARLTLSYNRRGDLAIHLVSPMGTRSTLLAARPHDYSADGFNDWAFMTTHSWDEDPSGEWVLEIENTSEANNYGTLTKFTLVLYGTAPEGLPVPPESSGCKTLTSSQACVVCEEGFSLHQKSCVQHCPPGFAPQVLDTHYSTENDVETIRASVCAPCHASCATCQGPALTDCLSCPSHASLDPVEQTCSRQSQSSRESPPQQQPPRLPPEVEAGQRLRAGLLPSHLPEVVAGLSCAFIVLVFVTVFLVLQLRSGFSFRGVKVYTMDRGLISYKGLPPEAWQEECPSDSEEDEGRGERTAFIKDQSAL
T2 sequence (P09958 108-574): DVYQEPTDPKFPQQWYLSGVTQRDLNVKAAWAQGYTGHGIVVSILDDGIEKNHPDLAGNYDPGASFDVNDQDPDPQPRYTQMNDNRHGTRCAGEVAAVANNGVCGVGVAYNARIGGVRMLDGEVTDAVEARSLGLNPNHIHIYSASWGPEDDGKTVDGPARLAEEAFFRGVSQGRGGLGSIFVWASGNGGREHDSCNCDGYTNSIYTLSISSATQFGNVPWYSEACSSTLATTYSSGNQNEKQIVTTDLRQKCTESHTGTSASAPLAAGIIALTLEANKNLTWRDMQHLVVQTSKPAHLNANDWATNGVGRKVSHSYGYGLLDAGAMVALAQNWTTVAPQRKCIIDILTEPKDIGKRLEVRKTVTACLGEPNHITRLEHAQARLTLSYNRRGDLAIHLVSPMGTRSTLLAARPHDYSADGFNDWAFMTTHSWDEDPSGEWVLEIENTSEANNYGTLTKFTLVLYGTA

As to `CC(=O)NCC1CCN(Cc2cc(Oc3cnc(N4CCNCC4)nc3)nc(-c3cc(Cl)cc(Cl)c3)c2)CC1` [Example 92, N-((1-((2-(3,5-Dichlorophenyl)-6-((2-(piperazin-1-yl)pyrimidin-5-yl)oxy)pyridin-4-yl)methyl)piperidin-4-yl)methyl)acetamide], the EC50 in experiment [1] was 3.16 nM. The “furin enzyme pIC50” value in experiment [2] came to 8.9.

Turning to `CC(C)N(c1cnc(N2CCN(C)CC2)nc1)c1cc(CN2CCC(CC(=O)O)CC2)cc(-c2cc(Cl)cc(Cl)c2)n1` [Example 375, 2-(1-((2-(3,5-Dichlorophenyl)-6-(isopropyl(2-(4-methylpiperazin-1-yl)pyrimidin-5-yl)amino)pyridin-4-yl)methyl)piperidin-4-yl)acetic acid], the EC50 in experiment [1] was 251 nM. Further, the “furin enzyme pIC50” value in experiment [2] is recorded as 7.9.

In the case of `COC(=O)C(C)CCN1CCN(c2ncc(Oc3cc(CN4CCC(CNC(C)=O)CC4)cc(-c4cc(Cl)cc(Cl)c4)n3)cn2)CC1` (stereo not drawn) [Example 368, methyl 4-(4-(5-((4-((4-(acetamidomethyl)piperidin-1-yl)methyl)-6-(3,5-dichlorophenyl)pyridin-2-yl)oxy)pyrimidin-2-yl)piperazin-1-yl)-2-methylbutanoate], in experiment [1], the EC50 was 3.98 nM. In experiment [2], the “furin enzyme pIC50” value came out at 8.3.

For `CCNC(=O)CC1CCN(Cc2cc(Oc3cnc(N4CCN(CCC(=O)O)CC4)nc3)nc(-c3cc(Cl)cc(Cl)c3)c2)CC1` [Example 268, 3-(4-(5-((6-(3,5-dichlorophenyl)-4-((4-(2-(ethylamino)-2-oxoethyl)piperidin-1-yl)methyl)pyridin-2-yl)oxy)pyrimidin-2-yl)piperazin-1-yl)propanoic acid], the EC50 in experiment [1] is 63.1 nM. For the same molecule, the “furin enzyme pIC50” value in experiment [2] is on record as 9.1.

Turning to `CC(=O)NCC1CCN(Cc2cc(Oc3ccc(N)cc3)cc(-c3cc(Cl)cc(Cl)c3)c2)CC1` [Example 42, N-((1-((5-(4-Aminophenoxy)-3′,5′-dichloro-[1,1′-biphenyl]-3-yl)methyl)piperidin-4-yl)methyl)acetamide], the EC50 in experiment [1] was 316 nM. Moreover, in experiment [2], the “furin enzyme pIC50” value was determined as 7.7.

As to `CNC(=O)NCC1CCN(Cc2cc(Oc3ccc(N4CCN(CCO)CC4)nc3)nc(-c3cc(Cl)cc(Cl)c3)c2)CC1` [Example 40, 1-((1-((2-(3,5-Dichlorophenyl)-6-((6-(4-(2-hydroxyethyl)piperazin-1-yl)pyridin-3-yl)oxy)pyridin-4-yl)methyl)piperidin-4-yl)methyl)-3-methylurea], the EC50 in experiment [1] is 10 nM. In experiment [2], the “furin enzyme pIC50” value came to 7.6.

Turning to `CC(=O)NCC1CCN(Cc2cc(Oc3cnc(N4CCN(C5CC(C(=O)O)C5)CC4)nc3)nc(-c3cc(Cl)cc(Cl)c3)c2)CC1` (stereo not drawn) [Example 216, 3-(4-(5-((4-((4-(acetamidomethyl)piperidin-1-yl)methyl)-6-(3,5-dichlorophenyl)pyridin-2-yl)oxy)pyrimidin-2-yl)piperazin-1-yl)cyclobutanecarboxylic acid], in experiment [1], the EC50 is 15.8 nM. The “furin enzyme pIC50” value in experiment [2] came out at 10.2.

Consider `CCC(CN1CCN(c2ccc(Oc3cc(CN4CCC(CNC(C)=O)CC4)cc(-c4cc(Cl)cc(Cl)c4)n3)cn2)CC1)C(=O)O` (stereo not drawn) [Example 288, 2-((4-(5-((4-((4-(acetamidomethyl)piperidin-1-yl)methyl)-6-(3,5-dichlorophenyl)pyridin-2-yl)oxy)pyridin-2-yl)piperazin-1-yl)methyl)butanoic acid], for which the EC50 in experiment [1] was 50.1 nM. The “furin enzyme pIC50” value in experiment [2] came out at 9.4.

In the case of `COC(=O)NCC1CCN(Cc2cc(Oc3cnc(N4CCNCC4)nc3)nc(-c3cc(F)cc(Cl)c3)c2)CC1` [Example 275, methyl ((1-((2-(3-chloro-5-fluorophenyl)-6-((2-(piperazin-1-yl)pyrimidin-5-yl)oxy)pyridin-4-yl)methyl)piperidin-4-yl)methyl)carbamate], in experiment [1], the EC50 is 100 nM. Further, the “furin enzyme pIC50” value in experiment [2] turned out to be 8.3.

The values above are taken from patent US11773078B2, “Furin inhibitors” (Glaxosmithkline Intellectual Property Development Limited, priority 2018, dated 2023).
